One assay relates to LXR. Particulars: cited from earlier work.
The next assay has as its system human papillomavirus. As to the kind of experiment: Target identification by siRNA sensitization (TISS), human papillomavirus, HeLa cells. Particulars: oxysterol at its EC50.
A further assay deals with adenovirus 5. Particulars: for example the adenovirus 5; cited from earlier work.
In another assay the test system is PsV of HPV-16. As to the kind of experiment: microbe, parasite or virus in culture. It is filed as cell-based, human papillomavirus.
In assay [1] the test system is rotavirus. Kind of assay: Rotavirus cell entry kinetics. The assay is classed as cell-based. To be noted: MA104 cells. The procedure:
To measure the entry speed of the rotavirus into the cells, confluent monolayers of MA104 cells (cultivated in plates with 96 wells) were treated with 25OHC, 27OHC or 7κC at 1.9 μM at 37° C.; after 20 hours, the cells were washed extensively with cold medium and left to cool on ice. […] The non-bound viruses were then eliminated by washing, medium was added at 37° C., and the plates were incubated at 37° C. in a humidified atmosphere. At fixed times (i.e. 0, 15, 30, 45, 60, 75 and 90 minutes after the virus-cell adhesion), the medium was extracted from the wells and the viral particles still present on the surface of the cells were eliminated by means of two rapid washing operations with EGTA 3 mM in PBS, followed by incubation in warm medium. After reaching the last time point (90 minutes from the virus-cell adhesion), the plates with 96 wells were placed in an incubator (37° C., 5% CO2), and the infection was left to proceed for a further 16 hours. The cells were then fixed and coloured as described above. The quantity of viral particles that entered the cells at each time point was compared with the quantity of virus that entered when no washing with EGTA was performed (100% entry). The ANOVA, followed by the Bonferroni test, was used to evaluate the statistical significance of the differences between the treated and non-treated samples. The significance was fixed at the level of 95%.
As a control experiment, the same treatment and infection protocol was performed on MA104 cells, cultivated in a plate with 6 wells. In this experiment, after reaching the last time point of the entry measurement (90 minutes), the cells were lysed, the proteins extracted were denatured by boiling for 5 minutes, then separated by electrophoresis on sodium dodecylsulfate gel with 12% polyacrylamide (SDS-12%PAGE) and transferred to a polyvinylidene difluoride (PVDF) membrane. The protein of the intermediate capsid VP6 was detected using the murine monoclonal antibody 2B4 (mab0036-P, CovalAb) at a dilution 1:750, followed by secondary antibody IgG-HRP (Santa Cruz Biotechnology Inc.). The actin was detected using the anti-actin murine monoclonal antibody MAB1501R (Millipore), followed by antibody IgG-HRP (Santa Cruz Biotechnology Inc.). The density of the bands was compared using the ImageJ software, and the intensity of the actin bands was used to normalize the values. The ANOVA, followed by the Bonferroni test, was used to evaluate the statistical significance of the differences between the treated and the non-treated samples. The significance was fixed at the level of 95%. The results are reported in FIG. 11 and are expressed as a percentage, comparing treated cells with cells incubated with culture medium.

Assay [2] concerns rotavirus. As to the kind of experiment: Assay on adhesion of the rotavirus to the cell surface. It is filed as cell-based. To be noted: MA104 cells, 5.6 μM for 20 hours, MOI 3. The method, then: For the assays on bonding of the rotavirus to the surface of MA104 cells, monolayers of confluent cells in plates with 24 wells were treated at 37° C. with 25- or 27-hydroxycholesterol at 1.9 μM and 5.6 μM for 20 hours. The cells were then washed and cooled on ice for 20 minutes. The infectivity of the virus was activated with 5 μg of porcine trypsin (Sigma)/ml for 30 minutes at 37° C. The activated virus, which had been cooled to 4° C., was left to adhere to the cells in ice for 1 hour at an MOI of 3. Lastly, the cells were washed with cold MEM; cold MEM was then added to the cells, which underwent two freezing-thawing cycles, in order to allow detachment of the viral particles bonded to the cell surface; the cell lysate was incubated at 37° C. for 30 minutes in the presence of […] of porcine trypsin/ml, subsequently clarified by means of centrifugation (1200 rpm, 10 minutes).
The titre of the virus population bound to the cells was determined by means of indirect immunocytochemistry performed on monolayers of MA104 cells infected with serial dilutions of the virus collected. The results are illustrated by FIG. 9; in the graph, the titre of the viral population bound to the surface of the treated cells is expressed in percentage terms with respect to the non-treated control and the error bars represent the standard deviation. […]

The test system of the next assay is HPV PsV (protein L1). As to the kind of experiment: Assay for adhesion of the papillomavirus to the cell surface: Western blot analysis. It is filed as cell-based, human papillomavirus. Particulars: Hela cells treated 16 hours, PsV 4 hours at 4° C. The source says: L1 was detected using the murine monoclonal antibody (Ab30908, Abcam, Cambridge, UK) at a dilution of 1:2000, followed by secondary antibody IgG-HRP (Santa Cruz Biotechnology Inc.). The actin was detected using an anti-actin murine monoclonal antibody (MAB1501R, Millipore), followed by secondary antibody IgG-HRP (Santa Cruz Biotechnology Inc.).

The next assay deals with human rotavirus WI61. As to the kind of experiment: Infectivity assay for rotavirus, MA104 cells, strain WI61.
Another assay relates to human rotavirus Wa. Kind of assay: Infectivity assay for rotavirus, MA104 cells, strain Wa.

Read-outs that look alike come from different tables or passages of the source.

Protocol for human papillomavirus: This mechanism of action vis-à-vis the rotavirus was therefore investigated, performing a target identification assay by means of sensitization with short interfering RNA (siRNA). The Caco2 cells (for the experiments with human rotavirus) or the HeLa cells (for the experiments with human papillomavirus) were seeded in a plate with 24 wells; during seeding, the cells were transfected with siRNA specific for OSBP and VAPA (at a concentration of 20 nM). […] After one day, the medium was removed and the cells inoculated with the respective viruses in the same time, temperature and MOI conditions described in the protocols of the infectivity or neutralization assays. The number of infected cells was evaluated as described in the preceding paragraphs.
Protocol for human rotavirus WI61: (§1) The strains of human rotavirus Wa (ATCC® VR-2018), WI61 (ATCC® VR-2551), HRV 408 (ATCC® VR-2273), HRV 248 (ATCC® VR-2274) and DS-1 (ATCC® VR-2550) were acquired from the American Tissue Culture Collection (ATCC); the viruses were activated with 5 μg/ml porcine pancreatic trypsin of type IX (Sigma, St. Louis, Mo.) for 30 minutes at 37° C. and propagated in MA104 cells using MEM containing 0.5 μg of trypsin per ml as described previously (27).
(§2) The antiviral effectiveness of the oxysterols of the invention was determined by means of infectivity inhibition assay. The assays were performed with confluent monolayers of MA104 cells seeded in plates with 96 wells, as described previously (28). […] The control samples were prepared by treating the cells with culture medium with the addition of equal volumes of ethanol. The cells were then washed with medium, and the rotavirus infection was performed at a multiplicity of infection (MOI) of 0.02. After the infection, the cells were washed with medium and incubated at 37° C. in an incubator humidified at 5% (vol/vol) CO2-95% (vol/vol) of air. After 16 hours, the infected cells were fixed with a cold acetone-methanol mixture (50:50), and the virus titres were determined by means of indirect immunocytochemistry. The inhibition of the virus infectivity was expressed as a percentage comparing the mean number of infective events in the treated and non-treated samples±the standard deviations. Where possible, the values of the oxysterol concentrations able to determine 50% or 90% of the antiviral effect (EC50 and EC90 respectively) were calculated by means of regression analysis using the dose-response curves generated by the experimental data, with the use of PRISM 5.00 (GraphPad Software, San Diego, Calif., USA).
Protocol for human rotavirus Wa: as §1, §2

For `C[C@H](CCCC(C)(C)O)[C@H]1CC[C@H]2[C@@H]3CC=C4C[C@@H](O)CC[C@]4(C)[C@H]3CC[C@]12C` [25OHC, 25-hydroxycholesterol], the LXR ligand activity result with LXR is on record as “optimal ligands of LXR”. Besides, the “antiviral activity in cells with OSBP silenced” value in the assay with human papillomavirus (OSBP siRNA 20 nM) is on record as “higher”. For the same molecule, in the assay on human papillomavirus (VAPA siRNA 20 nM), the “antiviral activity in cells with VAP-A silenced” value is on record as “higher”. In addition, in the assay with adenovirus 5, the “effectiveness on naked viruses” value is “not effective on naked viruses”. Further, the EC50 with PsV of HPV-16 (C33A cells, treated 16 hours before PsV, read-out: EC50) was determined as 2.06 µM; with PsV of HPV-16 (Human papillomavirus, HeLa) it was 2.19 µM; in the assay on PsV of HPV-16 (Human papillomavirus, SiHa) it was 14.8 µM; in the assay with human rotavirus WI61 it was 0.09 µM; in the assay with human rotavirus Wa it was 0.16 µM. The “entry of the rotavirus into the cells (infective events)” value in the assay with rotavirus [1] (1.9 μM for 20 hours, MOI 0.02) is “totally inhibit the ability of the rotavirus to penetrate into the host cells”. The “viral antigen VP6 within the cells (Western blot)” value in the assay on rotavirus [1] (90 minutes after virus-cell adhesion) is “significantly (p<0.05) lower quantity than the non-treated control”. For the same molecule, the “titre of the viral population bound to the cell surface” value in the assay with rotavirus [2] is reported as “reduce in a statistically significant manner (p<0.05) the ability of the virus to adhere to the cell surface”. In addition, the “adhesion of the PsV to the cell surface (L1 Western blot)” value in the assay with HPV PsV (protein L1) is recorded as “not able to inhibit adhesion of the PsV to the cell surface”. For the same molecule, the EC90 in the assay with human rotavirus WI61 came out at 0.28 µM; with human rotavirus Wa it was 1.37 µM.

(Values after US20170137458A1, “OXYSTEROLS FOR USE IN THE TREATMENT AND PREVENTION OF DISEASES CAUSED BY VIRUSES” (priority 2014, published 2017).)
